Values of other authors as cited in US20230219942A1, “COMPOUNDS COMPRISING A THREE RING CORE AS PD-1/PD-L1 BLOCKERS” (RELIVE THERAPEUTICS INC., priority 2020, published 2023).

Test system: PD-1
Conditions: PD-1 inhibition assay, literature value; read-out: IC50 previously reported; cited from earlier work

**Q.** For `COc1cc(OCc2cccc(-c3ccccc3)c2C)cc(OC)c1CN1CCCCC1C(=O)O` (stereo not shown) [Compound S7911], which IC50 is on record?
**A.** 6 nM
